Measurements published in PubChem BioAssay (NCI).
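Tested at 5 concentrations; 48 h exposure; 96-well plates; endpoints linearly interpolated, else capped at highest concentration. GI50 marks 50% less growth. The concentration for full growth arrest is given as TGI.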

Tests used:
Assay in all cases: NCI anticancer screen, dose series, 48 h
786-0 renal = system: 786-0 renal
A498 renal = system: A498 renal
A549 NSCLC = system: A549 NSCLC
ACHN renal = system: ACHN renal
BT-549 breast = system: BT-549 breast
CAKI-1 renal = system: CAKI-1 renal
CCRF-CEM leukemia = system: CCRF-CEM leukemia
COLO 205 colon = system: COLO 205 colon
DU-145 prostate = system: DU-145 prostate
EKVX NSCLC = system: EKVX NSCLC
HCC-2998 colon = system: HCC-2998 colon
HCT-116 colon = system: HCT-116 colon
HCT-15 colon = system: HCT-15 colon
HL-60(TB) leukemia = system: HL-60(TB) leukemia
HOP-62 NSCLC = system: HOP-62 NSCLC
HOP-92 NSCLC = system: HOP-92 NSCLC
HS 578T breast = system: HS 578T breast
HT29 colon = system: HT29 colon
IGROV1 ovarian = system: IGROV1 ovarian
K-562 leukemia = system: K-562 leukemia
KM12 colon = system: KM12 colon
LOX IMVI melanoma = system: LOX IMVI melanoma
M14 melanoma = system: M14 melanoma
MALME-3M melanoma = system: MALME-3M melanoma
MCF7 breast = system: MCF7 breast
MDA-MB-231 breast = system: MDA-MB-231 breast
MDA-MB-435 = system: MDA-MB-435
MDA-MB-468 breast = system: MDA-MB-468 breast
MOLT-4 leukemia = system: MOLT-4 leukemia
NCI-H226 lung = system: NCI-H226 lung
NCI-H23 lung = system: NCI-H23 lung
NCI-H460 lung = system: NCI-H460 lung
NCI-H522 lung = system: NCI-H522 lung
OVCAR-3 ovarian = system: OVCAR-3 ovarian
OVCAR-4 ovarian = system: OVCAR-4 ovarian
OVCAR-5 ovarian = system: OVCAR-5 ovarian
OVCAR-8 ovarian = system: OVCAR-8 ovarian
PC-3 prostate = system: PC-3 prostate
RPMI-8226 leukemia = system: RPMI-8226 leukemia
RXF 393 renal = system: RXF 393 renal
SF-268 CNS = system: SF-268 CNS
SF-295 CNS = system: SF-295 CNS
SF-539 CNS = system: SF-539 CNS
SK-MEL-2 melanoma = system: SK-MEL-2 melanoma
SK-MEL-28 melanoma = system: SK-MEL-28 melanoma
SK-MEL-5 melanoma = system: SK-MEL-5 melanoma
SK-OV-3 ovarian = system: SK-OV-3 ovarian
SN12C renal = system: SN12C renal
SNB-19 CNS = system: SNB-19 CNS
SNB-75 CNS = system: SNB-75 CNS
SR leukemia = system: SR leukemia
SW-620 colon = system: SW-620 colon
T-47D breast = system: T-47D breast
TK-10 renal = system: TK-10 renal
U251 CNS = system: U251 CNS
UACC-257 melanoma = system: UACC-257 melanoma
UACC-62 melanoma = system: UACC-62 melanoma
UO-31 renal = system: UO-31 renal

CCOc1ccc(/C=N/NC(=O)Cn2nc(Cc3ccccc3)c3onc(C)c3c2=O)cc1 was tested, and the GI50 (786-0 renal) was 5.99 µM, the TGI (786-0 renal) was 17.6 µM and the GI50 (A498 renal) was 19.9 µM. For the same molecule, the TGI (A498 renal) was over 59.6 µM, the GI50 (A549 NSCLC) was over 100 µM and the TGI (A549 NSCLC) was over 100 µM. It also gave a GI50 (ACHN renal) of 11.3 µM, a TGI (ACHN renal) of over 52.4 µM and a GI50 (BT-549 breast) of 13.5 µM. It also gave a TGI (BT-549 breast) of over 24.8 µM, a GI50 (CAKI-1 renal) of 14 µM and a TGI (CAKI-1 renal) of over 95.8 µM. It also gave a GI50 (CCRF-CEM leukemia) of over 100 µM, a TGI (CCRF-CEM leukemia) of over 100 µM and a GI50 (COLO 205 colon) of over 100 µM. The TGI (COLO 205 colon) was over 100 µM, the GI50 (DU-145 prostate) was over 100 µM and the TGI (DU-145 prostate) was over 100 µM. It also gave a GI50 (EKVX NSCLC) of over 100 µM, a TGI (EKVX NSCLC) of over 100 µM and a GI50 (HCC-2998 colon) of over 100 µM. The TGI (HCC-2998 colon) was over 100 µM, the GI50 (HCT-116 colon) was over 100 µM and the TGI (HCT-116 colon) was over 100 µM. For the same molecule, the GI50 (HCT-15 colon) was over 100 µM, the TGI (HCT-15 colon) was over 100 µM and the GI50 (HL-60(TB) leukemia) was over 100 µM. For the same molecule, the TGI (HL-60(TB) leukemia) was over 100 µM, the GI50 (HOP-62 NSCLC) was 4.4 µM and the TGI (HOP-62 NSCLC) was 28.4 µM. It also gave a GI50 (HOP-92 NSCLC) of 5.71 µM, a TGI (HOP-92 NSCLC) of 21.7 µM and a GI50 (HS 578T breast) of 3.57 µM. For the same molecule, the TGI (HS 578T breast) was over 25.6 µM, the GI50 (HT29 colon) was over 100 µM and the TGI (HT29 colon) was over 100 µM. The GI50 (IGROV1 ovarian) was 47.4 µM, the TGI (IGROV1 ovarian) was over 100 µM and the GI50 (K-562 leukemia) was over 100 µM. The TGI (K-562 leukemia) was over 100 µM, the GI50 (KM12 colon) was over 100 µM and the TGI (KM12 colon) was over 100 µM. For the same molecule, the GI50 (LOX IMVI melanoma) was over 100 µM, the TGI (LOX IMVI melanoma) was over 100 µM and the GI50 (M14 melanoma) was over 21.6 µM. It also gave a TGI (M14 melanoma) of over 100 µM, a GI50 (MALME-3M melanoma) of 12 µM and a TGI (MALME-3M melanoma) of over 100 µM. The GI50 (MCF7 breast) was over 100 µM, the TGI (MCF7 breast) was over 100 µM and the GI50 (MDA-MB-231 breast) was 8.26 µM. The TGI (MDA-MB-231 breast) was over 37.6 µM, the GI50 (MDA-MB-435) was over 100 µM and the TGI (MDA-MB-435) was over 100 µM. The GI50 (MDA-MB-468 breast) was 9.09 µM, the TGI (MDA-MB-468 breast) was 44.6 µM and the GI50 (MOLT-4 leukemia) was over 100 µM. It also gave a TGI (MOLT-4 leukemia) of over 100 µM, a GI50 (NCI-H226 lung) of 4.76 µM and a TGI (NCI-H226 lung) of over 24.7 µM. The GI50 (NCI-H23 lung) was 30.4 µM, the TGI (NCI-H23 lung) was over 100 µM and the GI50 (NCI-H460 lung) was over 100 µM. For the same molecule, the TGI (NCI-H460 lung) was over 100 µM, the GI50 (NCI-H522 lung) was over 31.3 µM and the TGI (NCI-H522 lung) was over 87.2 µM. For the same molecule, the GI50 (OVCAR-3 ovarian) was over 100 µM, the TGI (OVCAR-3 ovarian) was over 100 µM and the GI50 (OVCAR-4 ovarian) was 2.93 µM. For the same molecule, the TGI (OVCAR-4 ovarian) was over 100 µM, the GI50 (OVCAR-5 ovarian) was over 100 µM and the TGI (OVCAR-5 ovarian) was over 100 µM. For the same molecule, the GI50 (OVCAR-8 ovarian) was over 100 µM, the TGI (OVCAR-8 ovarian) was over 100 µM and the GI50 (PC-3 prostate) was over 100 µM. The TGI (PC-3 prostate) was over 100 µM, the GI50 (RPMI-8226 leukemia) was over 100 µM and the TGI (RPMI-8226 leukemia) was over 100 µM. The GI50 (RXF 393 renal) was 5.82 µM, the TGI (RXF 393 renal) was 22.5 µM and the GI50 (SF-268 CNS) was 15.7 µM. It also gave a TGI (SF-268 CNS) of over 100 µM, a GI50 (SF-295 CNS) of 14.7 µM and a TGI (SF-295 CNS) of over 61 µM. The GI50 (SF-539 CNS) was 19.5 µM, the TGI (SF-539 CNS) was over 64.5 µM and the GI50 (SK-MEL-2 melanoma) was 15.5 µM. The TGI (SK-MEL-2 melanoma) was 33.1 µM, the GI50 (SK-MEL-28 melanoma) was over 100 µM and the TGI (SK-MEL-28 melanoma) was over 100 µM. The GI50 (SK-MEL-5 melanoma) was over 100 µM, the TGI (SK-MEL-5 melanoma) was over 100 µM and the GI50 (SK-OV-3 ovarian) was 13.8 µM. It also gave a TGI (SK-OV-3 ovarian) of over 66.8 µM, a GI50 (SN12C renal) of over 100 µM and a TGI (SN12C renal) of over 100 µM. For the same molecule, the GI50 (SNB-19 CNS) was 16.3 µM, the TGI (SNB-19 CNS) was over 52.4 µM and the GI50 (SNB-75 CNS) was 2.61 µM. It also gave a TGI (SNB-75 CNS) of 13.8 µM, a GI50 (SR leukemia) of over 100 µM and a TGI (SR leukemia) of over 100 µM. The GI50 (SW-620 colon) was over 100 µM, the TGI (SW-620 colon) was over 100 µM and the GI50 (T-47D breast) was over 20.4 µM. It also gave a TGI (T-47D breast) of over 100 µM, a GI50 (TK-10 renal) of over 40.2 µM and a TGI (TK-10 renal) of over 66.2 µM. The GI50 (U251 CNS) was 9.01 µM, the TGI (U251 CNS) was over 100 µM and the GI50 (UACC-257 melanoma) was over 100 µM. It also gave a TGI (UACC-257 melanoma) of over 100 µM, a GI50 (UACC-62 melanoma) of over 19.9 µM and a TGI (UACC-62 melanoma) of over 100 µM. For the same molecule, the GI50 (UO-31 renal) was over 100 µM and the TGI (UO-31 renal) was over 100 µM.
